# Source: ChEMBL document CHEMBL2062359, “Pyrimidinopyrimidine inhibitors of ketohexokinase: exploring the ring C2 group that interacts with Asp-27B in the ligand binding pocket” (Bioorg Med Chem Lett, 2012)
# What was measured:
# Ketohexokinase [1] = target: T1, Ketohexokinase (Homo sapiens, UniProt P50053); experiment: Inhibition of recombinant human hepatic KHKC
# T1 sequence (P50053 whole entry): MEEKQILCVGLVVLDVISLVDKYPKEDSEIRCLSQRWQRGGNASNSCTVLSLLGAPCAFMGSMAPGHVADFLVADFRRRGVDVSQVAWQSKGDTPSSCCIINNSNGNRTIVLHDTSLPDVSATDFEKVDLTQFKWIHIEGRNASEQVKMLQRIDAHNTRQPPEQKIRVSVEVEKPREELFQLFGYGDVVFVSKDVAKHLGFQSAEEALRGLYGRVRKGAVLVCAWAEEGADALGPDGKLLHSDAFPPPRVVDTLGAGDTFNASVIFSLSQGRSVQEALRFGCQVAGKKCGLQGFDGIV
# Ketohexokinase [2] = target: T1, Ketohexokinase; experiment: Inhibition of KHKC in human HepG2 cells assessed as level of fructose-1-phosphate; format: cell-based
# [3] = target: Serine/threonine-protein kinase Chk1 (Homo sapiens, UniProt O14757); experiment: Inhibition of CHEK1 by FRET assay
# Ephrin type-B receptor 1 = Ephrin type-B receptor 1 (Homo sapiens, UniProt P54762); experiment: Inhibition of EPHB1 by FRET assay
# [4] = target: Serine/threonine-protein kinase PAK 3 (Homo sapiens, UniProt O75914); experiment: Inhibition of PAK3 by FRET assay
# [5] = target: Calcium/calmodulin-dependent protein kinase type 1D (Homo sapiens, UniProt Q8IU85); experiment: Inhibition of CAMK1D by FRET assay
# [6] = target: Glycogen synthase kinase-3 beta (Homo sapiens, UniProt P49841); experiment: Inhibition of GSK3B by FRET assay
# [7] = target: Protein kinase C theta type (Homo sapiens, UniProt Q04759); experiment: Inhibition of PRKCQ by FRET assay
# [8] = target: Rho-associated protein kinase 1 (Homo sapiens, UniProt Q13464); experiment: Inhibition of ROCK1 by FRET assay
# Aurora kinase A = Aurora kinase A (Homo sapiens, UniProt O14965); experiment: Inhibition of AURKA by FRET assay
# [9] = target: Serine/threonine-protein kinase PLK3 (Homo sapiens, UniProt Q9H4B4); experiment: Inhibition of PLK3 by FRET assay
# [10] = target: Serine/threonine-protein kinase 26 (Homo sapiens, UniProt Q9P289); experiment: Inhibition of MST4 by FRET assay
# [11] = target: RAC-alpha serine/threonine-protein kinase (Homo sapiens, UniProt P31749); experiment: Inhibition of AKT1 by FRET assay
# Activin receptor type-1B = Activin receptor type-1B (Homo sapiens, UniProt P36896); experiment: Inhibition of ALK4 by FRET assay
# [12] = target: Serine/threonine-protein kinase pim-2 (Homo sapiens, UniProt Q9P1W9); experiment: Inhibition of PIM2 by FRET assay
# [13] = target: Tyrosine-protein kinase ABL1 (Homo sapiens, UniProt P00519); experiment: Inhibition of ABL1 by FRET assay
# [14] = target: Interleukin-1 receptor-associated kinase 4 (Homo sapiens, UniProt Q9NWZ3); experiment: Inhibition of IRAK4 by FRET assay
# [15] = target: Tyrosine-protein kinase JAK2 (Homo sapiens, UniProt O60674); experiment: Inhibition of JAK2 by FRET assay
# [16] = target: Death-associated protein kinase 3 (Homo sapiens, UniProt O43293); experiment: Inhibition of DAPK3 by FRET assay
# [17] = target: Mitogen-activated protein kinase 13 (Homo sapiens, UniProt O15264); experiment: Inhibition of MAPK13 by FRET assay
# [18] = target: Ribosomal protein S6 kinase alpha-3 (Homo sapiens, UniProt P51812); experiment: Inhibition of RPS6KA3 by FRET assay
# [19] = target: Casein kinase I isoform delta (Homo sapiens, UniProt P48730); experiment: Inhibition of CSNK1D by FRET assay
# [20] = target: AMP-activated protein kinase (AMPK) alpha-1/beta-1/gamma-1 (Homo sapiens, UniProt P54619+Q13131+Q9Y478); experiment: Inhibition of AMPK A1/B1/G1 by FRET assay; format: protein-complex assay
# [21] = target: High affinity nerve growth factor receptor (Homo sapiens, UniProt P04629); experiment: Inhibition of NTRK1 by FRET assay
# [22] = target: Serine/threonine-protein kinase Chk2 (Homo sapiens, UniProt O96017); experiment: Inhibition of CHEK2 by FRET assay
# [23] = target: cAMP-dependent protein kinase catalytic subunit alpha (Homo sapiens, UniProt P17612); experiment: Inhibition of PRKACA by FRET assay
# [24] = target: Cyclin-dependent kinase 1/cyclin B1 (Homo sapiens, UniProt P06493); experiment: Inhibition of CDK1/cyclin B by FRET assay; format: protein-complex assay
# [25] = target: Serine/threonine-protein kinase Nek2 (Homo sapiens, UniProt P51955); experiment: Inhibition of NEK2 by FRET assay
# Serine/threonine-protein kinase Nek2, sequence (P51955 whole entry): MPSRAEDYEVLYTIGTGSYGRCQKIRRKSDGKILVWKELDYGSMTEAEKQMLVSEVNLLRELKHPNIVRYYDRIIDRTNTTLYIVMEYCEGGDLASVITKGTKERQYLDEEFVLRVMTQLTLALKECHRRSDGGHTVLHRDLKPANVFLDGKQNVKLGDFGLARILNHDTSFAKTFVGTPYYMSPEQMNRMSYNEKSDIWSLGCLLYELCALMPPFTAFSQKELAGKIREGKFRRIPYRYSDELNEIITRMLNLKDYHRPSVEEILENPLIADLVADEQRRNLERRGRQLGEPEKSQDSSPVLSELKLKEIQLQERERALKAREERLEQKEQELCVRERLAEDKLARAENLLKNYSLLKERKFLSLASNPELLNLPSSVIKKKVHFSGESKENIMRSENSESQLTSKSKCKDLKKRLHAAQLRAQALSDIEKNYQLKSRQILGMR
# Serine/threonine-protein kinase PLK3, sequence (Q9H4B4 whole entry): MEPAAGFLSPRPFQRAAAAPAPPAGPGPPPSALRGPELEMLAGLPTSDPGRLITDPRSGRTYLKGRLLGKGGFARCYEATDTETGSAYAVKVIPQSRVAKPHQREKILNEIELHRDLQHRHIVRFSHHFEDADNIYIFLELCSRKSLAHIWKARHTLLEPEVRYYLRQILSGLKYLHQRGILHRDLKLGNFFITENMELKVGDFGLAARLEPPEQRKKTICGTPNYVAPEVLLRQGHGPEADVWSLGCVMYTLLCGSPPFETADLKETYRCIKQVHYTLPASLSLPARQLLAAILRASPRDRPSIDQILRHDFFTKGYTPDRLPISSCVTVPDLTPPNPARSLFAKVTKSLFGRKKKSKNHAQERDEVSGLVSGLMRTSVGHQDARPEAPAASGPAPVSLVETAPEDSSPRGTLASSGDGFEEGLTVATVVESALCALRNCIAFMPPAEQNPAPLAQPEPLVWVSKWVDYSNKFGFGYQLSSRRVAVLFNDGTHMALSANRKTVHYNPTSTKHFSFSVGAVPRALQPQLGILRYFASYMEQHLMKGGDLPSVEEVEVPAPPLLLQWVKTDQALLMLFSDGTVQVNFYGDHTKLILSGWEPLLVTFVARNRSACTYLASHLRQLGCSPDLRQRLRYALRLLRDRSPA
# Cyclin-dependent kinase 1/cyclin B1, sequence (P06493 whole entry): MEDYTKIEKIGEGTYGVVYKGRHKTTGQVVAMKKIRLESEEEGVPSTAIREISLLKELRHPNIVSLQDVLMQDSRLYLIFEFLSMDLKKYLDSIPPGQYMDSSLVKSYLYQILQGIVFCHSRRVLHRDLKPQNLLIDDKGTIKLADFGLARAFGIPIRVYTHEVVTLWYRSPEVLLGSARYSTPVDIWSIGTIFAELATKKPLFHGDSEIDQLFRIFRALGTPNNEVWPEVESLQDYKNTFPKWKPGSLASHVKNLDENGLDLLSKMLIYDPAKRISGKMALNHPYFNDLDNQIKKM
# Cyclin-dependent kinase 1/cyclin B1, sequence (P14635 whole entry, further chain): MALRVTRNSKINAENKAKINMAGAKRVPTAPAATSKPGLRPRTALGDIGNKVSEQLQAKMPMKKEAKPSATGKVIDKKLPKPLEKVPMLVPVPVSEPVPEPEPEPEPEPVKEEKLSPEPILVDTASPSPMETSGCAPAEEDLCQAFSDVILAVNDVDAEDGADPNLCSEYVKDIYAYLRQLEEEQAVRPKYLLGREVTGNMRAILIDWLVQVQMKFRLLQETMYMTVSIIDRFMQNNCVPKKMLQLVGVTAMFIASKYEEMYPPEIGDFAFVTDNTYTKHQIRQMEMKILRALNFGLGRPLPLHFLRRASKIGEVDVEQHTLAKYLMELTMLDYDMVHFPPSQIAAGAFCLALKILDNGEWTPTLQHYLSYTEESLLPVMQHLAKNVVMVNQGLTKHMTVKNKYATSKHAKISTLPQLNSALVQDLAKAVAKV
# Casein kinase I isoform delta, sequence (P48730 whole entry, canonical isoform): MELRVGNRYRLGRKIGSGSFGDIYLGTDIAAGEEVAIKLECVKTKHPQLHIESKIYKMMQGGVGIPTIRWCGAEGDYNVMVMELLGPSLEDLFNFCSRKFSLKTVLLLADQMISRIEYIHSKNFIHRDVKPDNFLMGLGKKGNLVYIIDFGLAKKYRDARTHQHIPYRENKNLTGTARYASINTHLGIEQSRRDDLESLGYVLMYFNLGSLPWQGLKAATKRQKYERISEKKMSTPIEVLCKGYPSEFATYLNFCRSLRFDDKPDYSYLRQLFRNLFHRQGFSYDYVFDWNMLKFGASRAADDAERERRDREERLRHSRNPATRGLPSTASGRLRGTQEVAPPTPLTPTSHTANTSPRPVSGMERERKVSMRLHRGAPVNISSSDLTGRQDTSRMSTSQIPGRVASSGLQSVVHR
# Calcium/calmodulin-dependent protein kinase type 1D, sequence (Q8IU85 whole entry): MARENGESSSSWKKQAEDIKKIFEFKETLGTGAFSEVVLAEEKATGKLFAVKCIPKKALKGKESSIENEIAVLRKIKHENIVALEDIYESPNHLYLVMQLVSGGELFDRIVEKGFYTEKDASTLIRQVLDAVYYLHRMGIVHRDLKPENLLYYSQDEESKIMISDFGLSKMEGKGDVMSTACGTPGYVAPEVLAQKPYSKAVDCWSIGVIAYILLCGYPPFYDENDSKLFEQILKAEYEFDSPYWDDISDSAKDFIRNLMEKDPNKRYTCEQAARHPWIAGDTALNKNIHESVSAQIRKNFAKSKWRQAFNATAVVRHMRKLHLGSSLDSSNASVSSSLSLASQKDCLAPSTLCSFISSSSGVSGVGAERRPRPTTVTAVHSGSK
# High affinity nerve growth factor receptor, sequence (P04629 whole entry): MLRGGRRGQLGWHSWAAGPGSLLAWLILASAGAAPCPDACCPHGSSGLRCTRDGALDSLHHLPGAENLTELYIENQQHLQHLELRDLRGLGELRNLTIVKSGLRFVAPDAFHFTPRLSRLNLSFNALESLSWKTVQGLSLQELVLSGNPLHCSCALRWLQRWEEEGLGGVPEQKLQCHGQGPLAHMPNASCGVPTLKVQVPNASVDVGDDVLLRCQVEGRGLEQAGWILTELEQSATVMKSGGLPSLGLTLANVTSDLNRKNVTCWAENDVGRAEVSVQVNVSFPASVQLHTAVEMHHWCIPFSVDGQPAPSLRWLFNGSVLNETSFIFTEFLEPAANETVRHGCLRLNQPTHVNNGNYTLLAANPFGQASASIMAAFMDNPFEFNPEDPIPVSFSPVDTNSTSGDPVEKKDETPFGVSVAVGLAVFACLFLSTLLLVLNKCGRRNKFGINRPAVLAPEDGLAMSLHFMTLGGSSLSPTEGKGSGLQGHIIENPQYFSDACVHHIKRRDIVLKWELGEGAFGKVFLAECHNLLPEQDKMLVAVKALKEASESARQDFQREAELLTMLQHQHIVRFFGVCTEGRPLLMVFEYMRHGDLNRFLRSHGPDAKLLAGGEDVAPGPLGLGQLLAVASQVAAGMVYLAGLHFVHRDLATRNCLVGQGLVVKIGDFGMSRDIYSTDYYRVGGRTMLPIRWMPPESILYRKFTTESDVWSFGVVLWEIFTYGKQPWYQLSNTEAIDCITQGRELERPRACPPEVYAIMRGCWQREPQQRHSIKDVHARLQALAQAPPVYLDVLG
# Aurora kinase A, sequence (O14965 whole entry): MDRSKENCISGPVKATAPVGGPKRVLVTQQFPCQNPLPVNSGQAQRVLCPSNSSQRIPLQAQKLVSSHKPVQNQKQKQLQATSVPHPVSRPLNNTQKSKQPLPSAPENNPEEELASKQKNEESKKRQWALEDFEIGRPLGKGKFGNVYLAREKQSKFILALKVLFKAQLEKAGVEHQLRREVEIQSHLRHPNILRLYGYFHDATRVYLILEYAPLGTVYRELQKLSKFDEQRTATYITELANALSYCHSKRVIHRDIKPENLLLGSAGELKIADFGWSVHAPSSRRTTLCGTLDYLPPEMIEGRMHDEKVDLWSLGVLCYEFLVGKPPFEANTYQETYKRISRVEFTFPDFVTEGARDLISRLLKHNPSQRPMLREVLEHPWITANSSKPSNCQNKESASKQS
# RAC-alpha serine/threonine-protein kinase, sequence (P31749 whole entry): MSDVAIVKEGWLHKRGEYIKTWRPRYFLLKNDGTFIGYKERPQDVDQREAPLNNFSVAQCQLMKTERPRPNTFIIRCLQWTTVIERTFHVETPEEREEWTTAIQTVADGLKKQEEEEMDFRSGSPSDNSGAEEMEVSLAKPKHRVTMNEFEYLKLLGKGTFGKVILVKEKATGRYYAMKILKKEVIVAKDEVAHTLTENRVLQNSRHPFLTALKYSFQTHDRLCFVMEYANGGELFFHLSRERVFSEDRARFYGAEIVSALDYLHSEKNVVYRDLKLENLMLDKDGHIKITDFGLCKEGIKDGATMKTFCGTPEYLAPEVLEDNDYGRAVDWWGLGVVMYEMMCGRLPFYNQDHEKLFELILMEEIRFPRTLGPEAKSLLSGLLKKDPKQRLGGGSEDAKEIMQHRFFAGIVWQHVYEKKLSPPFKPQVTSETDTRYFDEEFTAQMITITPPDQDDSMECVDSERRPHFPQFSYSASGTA
# Death-associated protein kinase 3, sequence (O43293 whole entry): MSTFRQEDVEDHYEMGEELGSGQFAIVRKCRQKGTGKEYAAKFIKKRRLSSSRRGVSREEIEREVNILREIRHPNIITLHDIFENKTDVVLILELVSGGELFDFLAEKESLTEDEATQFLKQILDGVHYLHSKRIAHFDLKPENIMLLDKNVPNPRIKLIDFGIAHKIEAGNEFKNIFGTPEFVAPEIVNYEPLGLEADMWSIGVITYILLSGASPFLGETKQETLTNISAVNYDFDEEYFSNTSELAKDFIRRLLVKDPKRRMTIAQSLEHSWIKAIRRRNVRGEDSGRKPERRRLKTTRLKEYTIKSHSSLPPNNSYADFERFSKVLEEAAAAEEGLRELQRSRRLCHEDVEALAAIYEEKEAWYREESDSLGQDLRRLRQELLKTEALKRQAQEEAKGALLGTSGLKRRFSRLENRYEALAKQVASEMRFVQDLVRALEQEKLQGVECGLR
structure (smiles),measurement,setting,value
CSc1ccccc1Nc1nc(N2CCC(N3CCN(C)CC3)CC2)nc2c(NCC3CC3)ncnc12,IC50,Ketohexokinase [1],30 nM
CSc1ccccc1Nc1nc(N2C[C@@H]3CCCN[C@@H]3C2)nc2c(NCC3CC3)ncnc12,IC50,Ketohexokinase [1],300 nM
CSc1ccccc1Nc1nc(N2CCC3(CCNC3)C2)nc2c(NCC3CC3)ncnc12 (stereo not given),IC50,Ketohexokinase [1],43 nM
CSc1ccccc1Nc1nc(N2CCC3(CNC3)C2)nc2c(NCC3CC3)ncnc12,IC50,Ketohexokinase [2],150 nM
same,IC50,Ketohexokinase [1],2 nM
CSc1ccccc1Nc1nc(N2CCC(C3CCNCC3)CC2)nc2c(NCC3CC3)ncnc12,IC50,Ketohexokinase [1],50 nM
CSc1ccccc1Nc1nc(N2CCNCC2)nc2c(NCC3CC3)ncnc12,IC50,Ketohexokinase [2],< 500 nM
CSc1ccccc1Nc1nc(N2CCC(N3CCNCC3)CC2)nc2c(NCC3CC3)ncnc12,IC50,Ketohexokinase [1],28 nM
CSc1ccccc1Nc1nc(N2CCNC(C)C2)nc2c(NCC3CC3)ncnc12 (stereo not given),IC50,Ketohexokinase [1],70 nM
CSc1ccccc1Nc1nc(N2CCNC[C@H]2C)nc2c(NCC3CC3)ncnc12,IC50,Ketohexokinase [1],58 nM
CSc1ccccc1Nc1nc(N(C)CC2CCNCC2)nc2c(NCC3CC3)ncnc12,IC50,Ketohexokinase [1],66 nM
CSc1ccccc1Nc1nc(N2C[C@@H](C)N[C@@H](C)C2)nc2c(NCC3CC3)ncnc12,IC50,Ketohexokinase [1],110 nM
CSc1ccccc1Nc1nc(N2C[C@@H]3C[C@H]2CN3)nc2c(NCC3CC3)ncnc12,IC50,Ketohexokinase [1],4600 nM
CSc1ccccc1Nc1nc(N2CCNc3ccccc3C2)nc2c(NCC3CC3)ncnc12,IC50,Ketohexokinase [1],6000 nM
CSc1ccccc1Nc1nc(N2CCC3(CCNCC3)CC2)nc2c(NCC3CC3)ncnc12,IC50,Ketohexokinase [1],15 nM
CSc1ccccc1Nc1nc(N2CCN(C3CCNCC3)CC2)nc2c(NCC3CC3)ncnc12,IC50,[3],< 10000 nM
same,IC50,Ephrin type-B receptor 1,< 10000 nM
same,IC50,[4],< 10000 nM
same,IC50,[5],< 10000 nM
same,IC50,[6],< 10000 nM
same,IC50,[7],< 10000 nM
same,IC50,[8],< 10000 nM
same,IC50,Aurora kinase A,< 10000 nM
same,IC50,[9],< 10000 nM
same,IC50,[10],< 10000 nM
same,IC50,[11],< 10000 nM
same,IC50,Activin receptor type-1B,< 10000 nM
same,IC50,[12],< 10000 nM
same,IC50,[13],< 10000 nM
same,IC50,[14],< 10000 nM
same,IC50,[15],< 10000 nM
same,IC50,[16],< 10000 nM
same,IC50,[17],< 10000 nM
same,IC50,[18],< 10000 nM
same,IC50,[19],< 10000 nM
same,IC50,[20],< 10000 nM
same,IC50,[21],< 10000 nM
same,IC50,[22],< 10000 nM
same,IC50,Ketohexokinase [1],48 nM
same,IC50,[23],< 10000 nM
same,IC50,[24],< 10000 nM
same,IC50,[25],< 10000 nM
CSc1ccccc1Nc1nc(N2CCC[C@@H]3CNC[C@@H]32)nc2c(NCC3CC3)ncnc12,IC50,Ketohexokinase [1],440 nM
CSc1ccccc1Nc1nc(N2CCNC(C)(C)C2)nc2c(NCC3CC3)ncnc12,IC50,Ketohexokinase [1],40 nM
CSc1ccccc1Nc1nc(N2C3CCC2CC(N)C3)nc2c(NCC3CC3)ncnc12 (stereo not given),IC50,Ketohexokinase [1],800 nM
